The nature of series [1]: Reversibility of self-assembly on dilution (DCVJ fluorescence). Conditions: dilution of preformed assemblies. It counts as physicochemical. The procedure:
Compound 1 (100 μM) was incubated in DMEM (10% FBS, 0.5, DMSO) at 25° C. for 1 hour to allow it to form self-assemblies. A solution of pre-formed assemblies of compound 1 was diluted in various ratios with DMEM (10% FBS, 0.5% DMSO). All samples contained 1.0 μM DCVJ, an environmentally sensitive dye, to quantify the amount of self-assembly of compound 1 by fluorescence. If the self-assembly is irreversible (upper graph in the frame), the fluorescence signal is linear with respect to the amount of the compound. […] In the two graphs within the frame, the vertical axis represents fluorescence, and the horizontal axis represents concentration. […] A time-dependent decrease in fluorescence at 25 μM (as a monomer of compound 1) was also observed. Error bars represent s.d. (n=3).

Another series deals with C57BL6J mice. The series is described as follows: Lens-induced myopia in mice, eye drops. It counts as in vivo. Conditions: −30 D lens 3 weeks, eye drop once a day. The procedure: (§1) A −30 diopter (unit of refractive index: D) lens was attached to the right eye of 3-week-old male C57BL6J mice, while only a lens frame was attached to the left eye, which served as a control eye. The lenses were worn for three weeks, and the refractive index and axial length of eyes were measured before and after attachment of the lenses. Concurrently with myopia induction, an eye drop, which is a 0.025 solution of X441A in PBS, was administered by instillation once a day every day. PBS was administered by eye drop to the control group (group administered with PBS). After 3 weeks of myopia induction and eye drop administration, the eyeballs were enucleated from the mice, and the sclera was isolated. Then, western blotting was performed to analyze the expression levels of p62, Atg5, and Atg12 in each group.

A further series can be described thus: Solubility. It counts as physicochemical. The note with it: in DMSO.
Series [2] in a line: Confocal microscopy of Nile red-stained assemblies. It counts as physicochemical. Conditions: cell culture medium, prolonged incubation (>5 hr). The method, then:
Doping with the environmentally sensitive dyes, Nile red and 9-(2,2-dicyanovinyl)julolidine (DCVJ), enabled detection of assembly formation by fluorescence spectroscopy and confocal microscopy. The relative amount of self-organization of compound 1 was quantified using DCVJ to form a DMEM-normalized dose-organization curve (FIG. 24). Fitting with a sigmoid curve gave an apparent half-maximal assembly concentration (AC50) of 29.7 μM for the molecules of compound 1. […] In confocal microscopy, assemblies of compound 1 stained with Nile red were readily detectable in PBS (pH of 7.4). In the cell culture medium, assemblies of compound 1 stained with Nile red were initially not visible due to the small particle size, but prolonged incubation (>5 hr) led to the formation of larger detectable assemblies (>1 μm in diameter).

For another series, the system named is fibronectin. The series is described as follows: Western blotting of TGF-β2-induced fibronectin production in iFECD. It counts as cell-based, human. Conditions: TGF-β2 stimulated iFECD. The method, then: 5 μg of the extracted proteins were separated by SDS-PAGE and transferred to a nitrocellulose membrane. The primary antibodies used were mouse anti-fibronectin antibody (BD Bioscience, 610077) and mouse anti-GAPDH antibody (MBL, M171-3). The secondary antibodies used were peroxidase-labeled anti-rabbit antibody and anti-mouse antibody (GE Healthcare Biosciences, NA931V, NA934V). The primary antibodies were diluted as follows: mouse anti-fibronectin antibody, 15,000-fold; and mouse anti-GAPDH antibody, 5,000-fold. The secondary antibodies were diluted 5,000-fold. For detection, Chemi Lumi ONE Ultra (Nacalai Tesque, 11644-40) was used. The intensity of the detected bands was analyzed using a LAS-4000mini lumino image analyzer (Fujifilm) and ImageQuant™ software (GE Healthcare).
On the technique in general: A western blot detects proteins with antibodies after separation by electrophoresis.

For another series, the system named is Atg5, and Atg12. The series is described as follows: Western blotting of sclera after myopia induction, Atg5/Atg12. It counts as in vivo, mice. The note with it: eye drop 3 weeks. The method, then:
as §1
(§2) After 3 weeks of myopia induction and eye drop administration, the eyeballs were enucleated from the mice, and the sclera was isolated. Then, western blotting was performed to analyze the expression levels of p62, Atg5, and Atg12 in the group administered with X441A and the group administered with PBS.

The subject of the next series is p62. The series is described as follows: Western blotting of sclera after myopia induction, p62. It counts as in vivo, mice. Conditions: eye drop 3 weeks. The procedure:
as §1, §2

For series [3], the system named is pIRE1/IRE and p-eIF2/eIF2. The series is described as follows: Endoplasmic reticulum stress pathway activation in myopic sclera. It counts as in vivo, mice. The note with it: eye drop 3 weeks. The text has this: Thus, the attachment of a minus lens may enhance autophagy, and autophagy was not shown to be complete in the control group. […] This is thought to be the mechanism by which myopia progression is inhibited.

As for `NS(=O)(=O)c1ccc(Nc2ccn3c(n2)nc(=O)c2sc4cc(F)ccc4c23)cc1` [compound 1], in series [1], the Reversibility of self-assembly result is on record as “disintegration of the particles”. In the series on C57BL6J mice, the “Axial length elongation of eyes” value is given as “such changes were not observed” and the “Myopic shift in refractive index” value is “such changes were not observed”. For the same compound, in “Solubility”, the Solubility result is listed as “readily soluble”. Moreover, the “Diameter of detectable assemblies” value in series [2] is given as more than 1 μm. In addition, the Fibronectin production entry with fibronectin is recorded as “almost no production of fibronectin was observed”. The “Increase in expression of At5/Atg12” value in the series on Atg5, and Atg12 is listed as “enhanced regardless of the administration of X441A”. In addition, in the series with p62, the “Expression level of p62” value was “decreased”. Moreover, in series [3], the “Activation of the endoplasmic reticulum stress pathway caused by myopia induction” value was “did not occur”.
Take `COc1ccc2c(c1)sc1c(=O)nc3nc(Nc4ccc(S(N)(=O)=O)cc4)ccn3c12` [compound 6]: the Fibronectin production result with fibronectin is reported as “almost no production of fibronectin was observed”.

(Values after US20260070921A1, “COMPOUND, ENDOPLASMIC RETICULUM STRESS INHIBITOR, PHARMACEUTICAL PRODUCT, OPHTHALMIC AGENT, EYE DROPS, COMPOSITION, AND METHOD FOR PRODUCING COMPOUND” (KYOTO UNIVERSITY, priority 2022, published 2026).)
